Measured values published in ChEMBL document CHEMBL1135067, “Synthesis and antithrombotic activity of carbolinecarboxyl RGD sequence” (2002).
Where a SMILES comes first, the peptide text is derived from it. [ ]: non-standard residue; d: D form. Tpi = O=C(O)[C@@H]1Cc2c([nH]c3ccccc23)CN1

Tests used:
Assay type in all cases: functional
[1] = organism: Oryctolagus cuniculus; experiment: Tested in vitro for maximal rate of platelet aggregation induced by adenosine diphosphate (10 e5 mol/L) at a dose of 10 e5 mol/L in rabbit blood
[2] = organism: Oryctolagus cuniculus; experiment: Tested in vitro for maximal rate of platelet aggregation induced by adenosine diphosphate (10 e5 mol/L) at a dose of 10 e6 mol/L in rabbit blood
[3] = organism: Oryctolagus cuniculus; experiment: Tested in vitro for maximal rate of platelet aggregation induced by adenosine diphosphate (10 e5 mol/L) at a dose of 10 e7 mol/L in rabbit blood
[4] = organism: Oryctolagus cuniculus; experiment: Tested in vitro for the maximal rate of platelet aggregation induced by platelet activating factor (10 e-7 mol/L) at a dose of 10 e5 mol/L in rabbit blood
[5] = organism: Oryctolagus cuniculus; experiment: Tested in vitro for the maximal rate of platelet aggregation induced by platelet activating factor (10 e-7 mol/L) at a dose of 10 e6 mol/L in rabbit blood
[6] = organism: Oryctolagus cuniculus; experiment: Tested in vitro for the maximal rate of platelet aggregation induced by platelet activating factor (10 e-7 mol/L) at a dose of 10 e7 mol/L in rabbit blood
[7] = test system: Rattus norvegicus; experiment: Tested for the effect on the dry thrombus weight at a dose of 5 umol/kg in male wistar anesthetized rat
[8] = test system: Rattus norvegicus; experiment: Tested for the effect on the wet thrombus weight at a dose of 5 umol/kg in male wistar anesthetized rat
[9] = test system: SACC-LM; experiment: Tested for the effect of compound on the adhesion of high pulmonary metastatic SACC cell line SACC-LM and platelets at 5 mg/mL
[10] = test system: Rattus norvegicus; experiment: Tested for the effect on the dry thrombus weight at a dose of 5 uM/kg in male wistar anesthetized rat
[11] = test system: Rattus norvegicus; experiment: Tested for the effect on the wet thrombus weight at a dose of 5 uM/kg in male wistar anesthetized rat

Row | SMILES | Am [1] [%] | Am [2] [%] | Am [3] [%] | Am [4] [%] | Am [5] [%] | Am [6] [%] | Thrombus weight [7] [mg] | Thrombus weight [8] [mg] | Activity [9] [%] | Thrombus weight [10] [mg] | Thrombus weight [11] [mg]
1 | N=C(N)NCCC[C@H](N)C(=O)NCC(=O)N[C@@H](CC(=O)O)C(=O)NC(CO)C(=O)O (single isomer, unassigned) | 14.22 | 40.54 | 52.85 | 21.16 | 36.15 | 57.2 | 7.68 | 43.61 | 35.8 |  | 
2 | O=C(O)[C@@H]1Cc2c([nH]c3ccccc23)CN1 [CYCLOMETHYLTRYPTOPHAN] | 24.6 | 45.16 | 53.66 | 35.66 | 50.18 | 55.15 |  | 42.99 | 45.6 | 7.17 | 
3 | N=C(N)NCCC[C@H](NC(=O)[C@@H]1Cc2c([nH]c3ccccc23)CN1)C(=O)NCC(=O)N[C@@H](CC(=O)O)C(=O)N[C@@H](Cc1ccccc1)C(=O)O (H-[Tpi]RGDF-OH) | 9.01 | 21.05 | 36.05 | 20.05 | 25.54 | 36.05 | 2.76 |  | 28.1 |  | 22.3
4 | CC(C)[C@H](NC(=O)[C@H](CC(=O)O)NC(=O)CNC(=O)[C@H](CCCN=C(N)N)NC(=O)[C@@H]1Cc2c([nH]c3ccccc23)CN1)C(=O)O (H-[Tpi]RGDV-OH) | 10.75 | 26.01 | 50.2 | 24.11 | 35.05 | 54.1 | 4.87 | 29.49 | 30.2 |  | 
5 | N=C(N)NCCC[C@H](NC(=O)[C@@H]1Cc2c([nH]c3ccccc23)CN1)C(=O)NCC(=O)N[C@@H](CC(=O)O)C(=O)N[C@@H](CO)C(=O)O (H-[Tpi]RGDS-OH) | 16.11 | 43.05 | 50.16 | 28.07 | 34.15 | 56.1 | 4.98 | 28.09 | 36.1 |  | 
6 | CC(C)[C@H](NC(=O)[C@H](CC(=O)O)NC(=O)CNC(=O)[C@@H](N)CCCN=C(N)N)C(=O)O (H-RGDV-OH) | 9.8 | 29.4 | 51.16 | 19.56 | 34.17 | 54.36 | 6.03 | 34.62 | 32.1 |  | 
7 | NC(N)=NCCC[C@H](N)C(=O)NCC(=O)N[C@@H](CC(=O)O)C(=O)N[C@@H](Cc1ccccc1)C(=O)O (H-RGDF-OH) | 7.36 | 22.11 | 35.7 | 7.81 | 23.8 | 39.18 | 4.14 | 26.61 | 29.7 |  | 
